Assay results reported in publication PMC9230651, “Discovery of Novel Quinazoline Derivatives as Potent Antitumor Agents” (Molecules, 2022).

Experiments:
MGC-803 = experiment: MTT assay, antiproliferative activity against MGC-803; assay type: cell-based, human
Procedure: (§1) Human gastric carcinoma cell line MGC-803, human breast adenocarcinoma cell line MCF-7, human lung carcinoma cell lines (PC-9, A549, and H1975), and human immortalized gastric mucosa epithelial cell line GES-1 were purchased from the Cell Bank of Shanghai Institute of Biochemistry and Cell Biology (Shanghai, China), and all of them were cultured in RPMI-1640 and DMEM complete medium (Solarbio, Beijing, China) at 37 °C in a 5% CO2 humidified atmosphere.
(§2) Briefly, cells were incubated with different concentrations of the test compound for different hours in each experiment for 72 h, followed by adding 20 μL MTT solution to each well, which was then incubated for another 4 h. An enzyme-linked immunosorbent assay reader (BioTek, South Plainfield, VT, USA) was used to measure absorbance values at 490 nm, and SPSS20 software was used to calculate the cell viability and IC50 values.

MCF-7 = experiment: MTT assay, antiproliferative activity against MCF-7; assay type: cell-based, human
Procedure: as §1, §2

PC-9 = experiment: MTT assay, antiproliferative activity against PC-9; assay type: cell-based, human
Procedure: as §1, §2

A549 = experiment: MTT assay, antiproliferative activity against A549; assay type: cell-based, human
Procedure: as §1, §2

H1975 = experiment: MTT assay, antiproliferative activity against H1975; assay type: cell-based, human
Procedure: as §1, §2

GES-1 = experiment: MTT assay, toxicity toward normal gastric epithelial cell line GES-1; assay type: cell-based, human; details: for IC50: MTT, 72 h
Procedure: as §1, §2

[1] = test system: xenograft model carrying MGC-803 cells; experiment: In vivo anti-tumor activity, gastric cancer xenograft model; set-up: species or system mice
Procedure: Male mice (23–25 g, aged 5–6 weeks) were obtained from Beijing Vital River Laboratory Animal Technology Co., Ltd. (Beijing, China). All animal treatments were performed under the guidelines of the National Institutes of Health Guide for the Care and Use of Laboratory Animals using an approved animal protocol by the Zhengzhou University Committee on Animal Care (2020CHEM-ZZU-086). 1.0 × 10^7 MGC-803 cells were implanted in the right flank of mice subcutaneously. After 16 days, the tumor volume reached 100 mm^3, followed by being randomly divided into three groups (n = 7): solvent group, 5-Fu (10 mg/kg) group, and compound 18 (25 mg/kg) group. An intravenous injection of 5-Fu (10 mg/kg) was administered into the corresponding mice group every three days, while the mice in compound 18 group received intragastric administration of 25 mg/kg compound 18 per day for 21 days. Tumor diameter and body weight were measured every two days, followed by the euthanization of the mice after 34 days, after which tumor weights were.

MGC-803 cells [2] = experiment: Wound healing migration assay; assay type: cell-based, human; details: 1 µM; 12 h, 24 h, 48 h
Procedure: For the wound healing assay, MGC-803 cells were seeded into 6-well plates, reaching the density of 90%, followed by being scraped off using a sterile yellow pipette tip and photographed. Subsequently, cells were treated with compound 18 at 1 µM for 12 h, 24 h, and 48 h, respectively, and then photographed again each time.

MGC-803 cells [3] = experiment: Transwell migration assay; assay type: cell-based, human; details: 0.37, 0.75, 1.5 µM; 48 h
Procedure: For the transwell assay, 600 µL of fresh medium was added to 20% FBS to the substrate of the 24-well plates. Then, 2 × 10^4 MGC-803 cells were seeded into each well, followed by incubation with 0.37 µM, 0.75 µM, and 1.5 µM compound 18 in the upper chambers for 48 h, which was then stained by DAPI solution and photographed.

MGC-803 cells [4] = experiment: Apoptosis, Annexin V-FITC/PI flow cytometry; assay type: cell-based, human; details: 1.5 μM, 48 h
Procedure: Cells were plated in 6-well plates and incubated with 0.37 µM, 0.75 µM, and 1.5 µM compound 18 for 48 h, followed by being harvested and stained by PI and Annexin V according to manufacturer’s protocol. Finally, flow cytometry (BD Bioscience, Franklin Lake, NJ, USA) was applied to detect apoptotic cells.

MGC-803 cells [5] = experiment: Western blot of apoptosis-related proteins; assay type: cell-based, human; details: 0.37, 0.75, 1.5 µM; 48 h
Procedure: Cells were incubated with 0.37 µM, 0.75 µM, and 1.5 µM compound 18 for 48 h and then collected with trypsin and total proteins and extracted in a lysis buffer. A BCA protein assay kit (Solarbio, Beijing, China) was used to confirm the concentration of the total proteins. These samples were detected by the standard protocol of western blot as described before.

MGC-803 cells [6] = experiment: Cell cycle distribution, PI flow cytometry; assay type: cell-based, human; details: 0.37, 0.75, 1.5 µM; 48 h
Procedure: MGC-803 cells were seeded into 6-well plates at a concentration of 4 × 10^5 cells per well, followed by being incubated with 0.37 µM, 0.75 µM, and 1.5 µM compound 18 for 48 h, which were subsequently harvested and stained in 500 µL Propidium Iodide solution (PI 1 mg/mL, RNase A 10 mg/mL, Solarbio, Beijing, China) at room temperature without light for 30 min. Finally, flow cytometry (BD Bioscience, Franklin Lake, NJ, USA) was used to detect and analyze staining cells.

[7] = test system: healthy male and female mice; experiment: Acute toxicity assay; assay type: in vivo; details: 1000 mg/kg intragastric, single dose
Procedure: The solution of compound 18 was prepared in 80% PEG400 solution. Eight ICR mice (four male/four female, 24–28 g, aged five to six weeks) were obtained from the Beijing Vital River Laboratory Animal Technology Co., Ltd. (Beijing, China). All animal treatments were performed under the guidelines of the National Institutes of Health Guide for the Care and Use of Laboratory Animals using an approved animal protocol by the Zhengzhou University Committee on Animal Care. Male and female mice ([…]) were divided randomly into four groups: a male control group (n = 2), a female control group (n = 2), a male group (n = 2), and a female group (n = 2). All mice were deprived of feed for 12 h. 1 g/kg compound 18 was administered intragastrically in the experiment group of mice, while the mice in the control group received the same volume of vehicle solution on the first day, followed by monitoring abnormal behaviors, body weight, and the death of these mice every day during the following two weeks.

[8] = 10 mg/kg intravenous every three days
[9] = 25 mg/kg intragastric per day for 21 days

Row | SMILES | IC50 (MGC-803; Homo sapiens, MGC-803, 72 h) [µM] | IC50 (MCF-7; Homo sapiens, MCF7, 72 h) [µM] | IC50 (PC-9; Homo sapiens, PC-9, 72 h) [µM] | IC50 (A549; Homo sapiens, A549, 72 h) [µM] | IC50 (H1975; Homo sapiens, NCI-H1975, 72 h) [µM] | melting point [°C] | IC50 (GES-1; Homo sapiens, GES1) [µM] | other results
1 | O=c1[nH]cc(F)c(=O)[nH]1 [5-Fu, reference compound] |  |  |  |  |  |  |  | IC50 (MGC-803; 72 h): 4.11 ± 0.72 µM; IC50 (MCF-7; 72 h): 4.51 ± 1.23 µM; IC50 (PC-9; 72 h): 3.68 ± 1.06 µM; IC50 (A549; 72 h): 5.12 ± 1.73 µM; IC50 (H1975; 72 h): 2.68 ± 0.86 µM; IC50 (GES-1): 3.26 ± 1.07 µM; average tumor volume [1, 8]: decreased the average tumor volume; body weight [1, 8]: did not cause significant changes in body weight; tumor weight [1, 8]: decreased the average tumor volume and tumor weight
2 | c1ccc(Nc2nc(-c3ccccc3)nc3ccccc23)cc1 [compound 6, N,2-Diphenylquinazolin-4-amine] | 6.23 ± 0.12 | 12.6 ± 0.16 | 15.8 ± 0.52 | 10.3 ± 0.98 | 20.1 ± 1.62 |  | > 30 | 
3 | FC(F)(F)c1ccc(Nc2nc(-c3ccccc3)nc3ccccc23)cc1 [compound 11, 2-Phenyl-N-(4-(trifluoromethyl)phenyl)quinazolin-4-amine] | 11 ± 1.93 | 15.7 ± 1.82 | 20.8 ± 2.16 | 25.4 ± 3.11 | 22.9 ± 2.69 | 190 to 195 | 25.4 ± 3.51 | 
4 | COc1ccc(Nc2nc(-c3ccccc3)nc3ccccc23)cc1 [compound 13, N-(4-Methoxyphenyl)-2-phenylquinazolin-4-amine] | 4.98 ± 1.26 | 8.36 ± 1.92 | 6.83 ± 1.29 | 5.69 ± 1.68 | > 30 |  | 21.3 ± 2.79 | 
5 | COc1cc(Nc2nc(-c3ccccc3)nc3ccccc23)cc(OC)c1OC [compound 14, 2-Phenyl-N-(3,4,5-trimethoxyphenyl)quinazolin-4-amine] | 2.12 ± 0.97 | 3.21 ± 2.28 | 5.35 ± 1.82 | 8.72 ± 1.53 | 13.2 ± 1.86 |  | 19.6 ± 2.58 | 
6 | c1ccc(-c2nc(Nc3cccc4ccccc34)c3ccccc3n2)cc1 [compound 15, N-(Naphthalen-1-yl)-2-phenylquinazolin-4-amine] | 18.9 ± 2.82 | > 30 | 15.4 ± 1.92 | 12.2 ± 1.59 | 10.4 ± 1.88 | 204 to 208 | > 30 | 
7 | O=C(/C=C/c1ccc(F)cc1)c1ccc(Nc2nc(-c3ccccc3)nc3ccccc23)cc1 [compound 16, (E)-3-(4-Fluorophenyl)-1-(4-((2-phenylquinazolin-4-yl)amino)phenyl)prop-2-en-1-one] | 2.02 ± 0.38 | 3.96 ± 0.92 | 2.75 ± 0.66 | 1.98 ± 0.26 | 3.67 ± 0.93 | 252 to 256 | 18.8 ± 1.56 | 
8 | O=C(/C=C/c1ccc(Cl)cc1)c1ccc(Nc2nc(-c3ccccc3)nc3ccccc23)cc1 [compound 17, (E)-3-(4-Chlorophenyl)-1-(4-((2-phenylquinazolin-4-yl)amino)phenyl)prop-2-en-1-one] | 1.39 ± 0.26 | 2.37 ± 0.35 | 1.89 ± 0.67 | 1.46 ± 0.16 | 4.75 ± 0.81 | 263 to 267 | 23.4 ± 2.83 | 
9 | O=C(/C=C/c1ccc(Br)cc1)c1ccc(Nc2nc(-c3ccccc3)nc3ccccc23)cc1 [compound 18, (E)-3-(4-Bromophenyl)-1-(4-((2-phenylquinazolin-4-yl)amino)phenyl)prop-2-en-1-one] | 0.85 ± 0.14 | 1.61 ± 0.2 | 1.26 ± 0.18 | 1.54 ± 0.38 | 2.12 ± 0.52 |  | 26.8 ± 1.85 | selectivity MGC-803 against GES-1 (GES-1; IC50 GES-1 / IC50 MGC-803): ~32 fold; effect on migration of MGC-803 cells, wound healing assay (MGC-803 cells [2]): effectively inhibit the migration of MGC-803 cells dose-dependently; effect on migration of MGC-803 cells, transwell assay (MGC-803 cells [3]): effectively inhibit the migration of MGC-803 cells dose-dependently; apoptotic percentage (late and early apoptosis) (MGC-803 cells [4]): 70.9%; expression of Bax (MGC-803 cells [5]): up-regulating; expression of Bcl-2 (MGC-803 cells [5]): remarkably decreased; expression of Mcl-1 (MGC-803 cells [5]): remarkably decreased; expression of cleaved PARP (MGC-803 cells [5]): dose-dependently induced the up-regulation; effect on cell cycle (MGC-803 cells [6]): significantly induced cell cycle arrest at G2/M; pathological damage of brain, heart, liver, spleen, lung, kidney (HE staining) [7]: no marked pathological damage; average tumor volume [1, 9]: decreased the average tumor volume; body weight [1, 9]: did not cause significant changes in body weight; tumor weight [1, 9]: decreased the average tumor volume and tumor weight
10 | O=C(/C=C/c1ccc2ccccc2c1)c1ccc(Nc2nc(-c3ccccc3)nc3ccccc23)cc1 [compound 19, (E)-3-(Naphthalen-2-yl)-1-(4-((2-phenylquinazolin-4-yl)amino)phenyl)prop-2-en-1-one] | 1.56 ± 0.92 | 1.96 ± 0.56 | 1.39 ± 0.25 | 2.55 ± 0.49 | 2.61 ± 0.59 | 281 to 286 | 19.8 ± 2.21 | 

More lines, main results first:

Row | IC50 (MGC-803; Homo sapiens, MGC-803, 72 h) [µM] | IC50 (MCF-7; Homo sapiens, MCF7, 72 h) [µM] | IC50 (PC-9; Homo sapiens, PC-9, 72 h) [µM] | IC50 (A549; Homo sapiens, A549, 72 h) [µM] | IC50 (H1975; Homo sapiens, NCI-H1975, 72 h) [µM] | melting point [°C] | SMILES | IC50 (GES-1; Homo sapiens, GES1) [µM] | other results
11 | 4.15 ± 1.16 | 8.75 ± 1.76 | 10.6 ± 2.16 | 4.82 ± 0.99 | 12.6 ± 2.89 |  | Fc1ccc(Nc2nc(-c3ccccc3)nc3ccccc23)cc1 [compound 7, N-(4-Fluorophenyl)-2-phenylquinazolin-4-amine] | 20.8 ± 3.29 | 
12 | 3.57 ± 0.89 | 6.96 ± 1.57 | 8.75 ± 1.59 | 6.58 ± 1.31 | 10.6 ± 2.46 |  | Clc1ccc(Nc2nc(-c3ccccc3)nc3ccccc23)cc1 [compound 8, N-(4-Chlorophenyl)-2-phenylquinazolin-4-amine] | > 30 | 
13 | 1.89 ± 0.59 | 5.15 ± 1.16 | 4.31 ± 0.96 | 4.75 ± 1.36 | 6.65 ± 1.57 | 187 to 193 | Brc1ccc(Nc2nc(-c3ccccc3)nc3ccccc23)cc1 [compound 9, N-(4-Bromophenyl)-2-phenylquinazolin-4-amine] | 18.6 ± 1.72 | 
14 | 8.32 ± 2.06 | 12.2 ± 1.91 | 12.5 ± 2.83 | 15.7 ± 1.89 | 25.8 ± 2.2 |  | O=[N+]([O-])c1ccc(Nc2nc(-c3ccccc3)nc3ccccc23)cc1 [compound 10, N-(4-Nitrophenyl)-2-phenylquinazolin-4-amine] | > 30 | 
15 | 5.81 ± 2.41 | 10.6 ± 1.67 | 15.3 ± 1.53 | 8.56 ± 1.72 | 19.4 ± 2.38 |  | Cc1ccc(Nc2nc(-c3ccccc3)nc3ccccc23)cc1 [compound 12, 2-Phenyl-N-(p-tolyl)quinazolin-4-amine] | 24.3 ± 1.96 | 
